Results: patent publication US9260439B2, “Dihydropyrrolopyrimidine derivatives” (PFIZER INC., priority 2014, dated 2016)

Target: truncated PI3Kα (p110α/iSH2 p85α) (Homo sapiens (Human), UniProt P42336)
Assay: PI3KA_Act fluorescence polarization kinase assay (Ki)
Type: biochemical
Details: 1 mM ATP
Source text: 2) p110α-iSH2 p85α Complex (Full Length p110α and p85α iSH2)(“PI3KA_Act”)
Genes encoding for full length p110α and p85α nSH-iSH2=niSH2 (p85a aminoacids 322-600) subunits of PI3Kα complex were subcloned from existing constructs into pFASTBAC Dual vector (Life Technologies, Carlsbad, Calif.) using standard cloning procedures. Gene encoding p110α subunit was subcloned into polyhedrine promoter while gene encoding p85α niSH2 domains was subcloned into p10 promoter. Additionally, Human Rhinovirus 3C Protease (“HRV 3C”) site was introduced between nSH2 and iSH2, replacing aminoacids 431-438 of p85α with […] HRV 3C recognition sequence, using standard QuickChange mutagenesis protocol (Agilent Technologies, CA). Recombinant baculovirus was generated using Bac-to-Bac protocol (Life Technologies, Carlsbad, Calif.). Large scale expression was conducted in Sf21 (Life Technologies, Carlsbad, Calif.) cells at a multiplicity of infection (“MOI”)=1 for 48 hours. Cells were lyzed in 50 mM Tris pH 8.0, 250 mM NaCl, 5% glycerol, 0.25 mM TCEP, and 20 mM imidazole. The p110α-niSH2 p85α complex was purified from clarified supernatant using Immobilized Metalo Affinity Chromatography (“IMAC”). The protein was eluted from the column using 50 mM Tris pH 8.0, 200 mM NaCl, 0.25 mM TCEP, and 200 mM imidazole. Following elution p110α-niSH2 p85α complex was dialyzed against 4 liters of 50 mM Tris pH 8.0, 200 mM NaCl, 0.25 mM TCEP, and 40 mM imidazole in the presence of PreScission Protease (1:70 molar ratio of Protease to Protein) and TEV protease (1:40 molar ratio protease to protein) for 16 hours at 4° C. The protein was further purified using reverse IMAC to remove cleaved histidine tag and contaminants captured during initial IMAC purification. The mixture of p110α-iSH2 p85α complex and cleaved nSH2 was recovered in reverse IMAC 40 mM imidazole flow through and 60 mM imidazole wash fractions. Those fractions were pulled together and loaded on Superdex 200 26/60 SEC column equilibrated in 25 mM Tris, pH 8.0, 100 mM NaCl, 2% glycerol, and 2 mM TCEP. Following SEC, chromatography peak fractions containing p110α-iSH2 p85α complex were pulled and concentrated to 4.3 mg/mL. Purity and integrity of the complex was confirmed using LCMS, analytical SEC and SDS-PAGE (sodium dodecyl sulfate polyacrylamide gel electrophoresis) analysis.
The biochemical assays of kinase activity of full-length PI3Kα (full-length p110α/p85a) or truncated PI3Kα (p110α/iSH2 p85a) were conducted using a fluorescence polarization format similar to the procedure of Yuan J., et al., (2011) “PF-04691502, a Potent and Selective Oral Inhibitor of PI3K and mTOR Kinases with Antitumor Activity”, Mol Cancer Ther. 10, 2189-2199. The enzymatic reactions were conducted in 50 μL volumes in 96-well plates. The reactions contained human recombinant PI3Kα (2 nM full-length p110α/p85α or 0.5 nM p110α/iSH2 p85) and 30 μM phosphatidylinositol 4,5-bisphosphate (“PIP2”) (Cayman Chemical Company, Ann Arbor, Mich.) and were sonicated for 1 minute prior to adding PI3Kα enzyme (PI3KA_Act or PI3KA_FL), DMSO or test compound (12-point 3-fold serial dilution, 3 μM top dose, 2° A) DMSO final concentration), 5 mM MgCl2, 50 mM HEPES pH 7.4, 150 mM NaCl, 1 mM DTT ((2S,3S)-1,4-bis(sulfanyl)butane-2,3-diol), and 0.05% 3-[(3-cholamidopropyl)dimethylammonio]-1-propanesulfonate (“CHAPS”). […] The reactions were incubated for 30 min at room temperature, stopped with EDTA pH 8 (10 mM final concentration). In a detection plate, 15 μL of detector/probe mixture, containing 480 nM GST-Grp1 PH domain protein (University of Dundee, Dundee, UK) and 12 nM carboxytetramethylrhodamine (“TAMRA”)-tagged fluorescent phosphatidylinositol (3,4,5)-triphosphate (“PIP3”) (Echelon Biosciences, Inc., Salt Lake City, Utah) in assay buffer, was mixed with 15 μL of kinase reaction mixture. The plate was shaken for 30 minutes and fluorescence polarization values were measured on an LJL Analyst HT plate reader (Molecular Devices, Sunnyvale, Calif.). […]

Chain of truncated PI3Kα (p110α/iSH2 p85α) (P42336 whole entry, the tested form may be a part): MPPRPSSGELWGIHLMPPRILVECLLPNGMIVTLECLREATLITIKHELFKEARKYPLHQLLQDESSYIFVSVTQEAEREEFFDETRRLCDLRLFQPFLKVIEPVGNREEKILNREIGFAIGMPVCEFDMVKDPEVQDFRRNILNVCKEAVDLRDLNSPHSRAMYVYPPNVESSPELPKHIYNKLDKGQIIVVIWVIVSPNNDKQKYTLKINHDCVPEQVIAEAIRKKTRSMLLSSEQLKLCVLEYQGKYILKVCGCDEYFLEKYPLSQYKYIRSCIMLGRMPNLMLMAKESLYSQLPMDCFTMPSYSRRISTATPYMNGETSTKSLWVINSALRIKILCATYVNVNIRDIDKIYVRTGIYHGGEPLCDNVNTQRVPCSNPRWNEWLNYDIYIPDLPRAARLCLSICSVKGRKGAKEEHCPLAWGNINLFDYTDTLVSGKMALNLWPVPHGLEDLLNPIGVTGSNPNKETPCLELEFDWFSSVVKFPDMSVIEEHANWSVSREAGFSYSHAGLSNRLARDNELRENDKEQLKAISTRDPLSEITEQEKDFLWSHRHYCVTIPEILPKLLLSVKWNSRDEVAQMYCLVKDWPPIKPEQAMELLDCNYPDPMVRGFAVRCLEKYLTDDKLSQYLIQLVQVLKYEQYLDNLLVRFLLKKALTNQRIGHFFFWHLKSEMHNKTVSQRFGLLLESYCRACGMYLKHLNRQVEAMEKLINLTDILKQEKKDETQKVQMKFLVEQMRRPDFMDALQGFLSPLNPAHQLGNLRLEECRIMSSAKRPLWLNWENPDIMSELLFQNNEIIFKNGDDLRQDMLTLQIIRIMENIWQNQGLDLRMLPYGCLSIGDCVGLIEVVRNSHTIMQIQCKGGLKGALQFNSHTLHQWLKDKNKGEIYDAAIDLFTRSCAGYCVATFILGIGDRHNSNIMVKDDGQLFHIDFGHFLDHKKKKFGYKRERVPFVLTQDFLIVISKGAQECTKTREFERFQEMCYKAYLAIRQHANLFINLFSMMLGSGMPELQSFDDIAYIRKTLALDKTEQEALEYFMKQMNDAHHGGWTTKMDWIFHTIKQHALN

SMILES | PI3KA_Act Ki [nM]
Cn1cnc(S(=O)(=O)N2CC(N3CCc4c(-c5cnc(N)nc5)nc(N5CCOCC5)nc43)C2)c1 [Example 179] | 0.344
CP(C)(=O)N1CC[C@@H](N2CCc3c(-c4cnc(N)nc4)nc(N4CCOCC4)nc32)C1 [Example 180] | 1.759
CP(C)(=O)N1CC[C@H](N2CCc3c(-c4cnc(N)nc4)nc(N4CCOCC4)nc32)C1 [Example 181] | 0.296
C[C@H](O)COC(=O)N1CC(N2CCc3c(-c4cnc(N)nc4)nc(N4CCOC[C@@H]4C)nc32)C1 [Example 182] | 0.357
CC(C)(CO)N1CCc2c(-c3cnc(N)nc3)nc(N3CCOCC3)nc21 [Example 183] | 0.393
CCC(C)(C)N1CCc2c(-c3cnc(N)nc3)nc(N3CCOCC3)nc21 [Example 184] | 0.647
C[C@@H](O)COC(=O)N1CC(N2CCc3c(-c4cnc(N)nc4)nc(N4CCOCC4)nc32)C1 [Example 185] | 0.182
C[C@@H](O)COC(=O)N1CC(N2CCc3c(-c4cnc(N)nc4)nc(N4CCOC[C@@H]4C)nc32)C1 [Example 186] | 0.274
CCCC(C)(C)N1CCc2c(-c3cnc(N)nc3)nc(N3CCOCC3)nc21 [Example 187] | 0.839
COCC(C)(C)N1CCc2c(-c3cnc(N)nc3)nc(N3CCOCC3)nc21 [Example 188] | 0.642
CP(C)(=O)N1CC(N2CCc3c(-c4cnc(N)nc4)nc(N4CCOCC4)nc32)C1 [Example 189] | 1.162
CNS(=O)(=O)N1CC(C)(N2CCc3c(-c4cnc(N)nc4)nc(N4CCOCC4)nc32)C1 [Example 190] | 0.040
CC(C)(CNS(C)(=O)=O)N1CCc2c(-c3cnc(N)nc3)nc(N3CCOCC3)nc21 [Example 191] | 0.881
C[C@@]1(N2CCc3c(-c4cnc(N)nc4)nc(N4CCOCC4)nc32)CCN(S(N)(=O)=O)C1 [Example 192] | 0.053
CC(C)(C)OC(=O)N1CC[C@](C)(N2CCc3c(-c4cnc(N)nc4)nc(N4CCOCC4)nc32)C1 [Example 194] | <0.018
CC(C)(C)OC(=O)N1CC[C@@](C)(N2CCc3c(-c4cnc(N)nc4)nc(N4CCOCC4)nc32)C1 [Example 195] | 0.166
CCS(=O)(=O)N1CC(C)(N2CCc3c(-c4cnc(N)nc4)nc(N4CCOCC4)nc32)C1 [Example 196] | 0.024
CC1(N2CCc3c(-c4cnc(N)nc4)nc(N4CCOCC4)nc32)CN(S(=O)(=O)C2CC2)C1 [Example 197] | 0.040
CC(C)S(=O)(=O)N1CC(C)(N2CCc3c(-c4cnc(N)nc4)nc(N4CCOCC4)nc32)C1 [Example 198] | 0.024
CC1(N2CCc3c(-c4cnc(N)nc4)nc(N4CCOCC4)nc32)CNC1 [Example 199] | 0.151
CCOC(=O)C(C)(C)N1CCc2c(-c3cnc(N)nc3)nc(N3CCOC[C@@H]3C)nc21 [Example 200] | 0.909
COCCC(=O)N1CC(N2CCc3c(-c4cnc(N)nc4)nc(N4CCOC[C@@H]4C)nc32)C1 [Example 202] | 1.037
CCS(=O)(=O)N1CC(C)(N2CCc3c(-c4cnc(N)nc4)nc(N4CCOC[C@@H]4C)nc32)C1 [Example 203] | 0.032
CC(C)S(=O)(=O)N1CC(C)(N2CCc3c(-c4cnc(N)nc4)nc(N4CCOC[C@@H]4C)nc32)C1 [Example 204] | <0.018

SMILES | PI3KA_Act Ki [nM]
C[C@H]1COCCN1c1nc(-c2cnc(N)nc2)c2c(n1)N(C1(C)CN(S(=O)(=O)C3CC3)C1)CC2 [Example 205] | 0.021
C[C@H]1COCCN1c1nc(-c2cnc(N)nc2)c2c(n1)N(C1(C)CN(S(C)(=O)=O)C1)CC2 [Example 206] | 0.031
C[C@H]1COCCN1c1nc(-c2cnc(N)nc2)c2c(n1)N(C1CN(S(=O)(=O)C3CN(C(=O)OC(C)(C)C)C3)C1)CC2 [Example 207] | 0.100
CC1(N2CCc3c(-c4cnc(N)nc4)nc(N4CCOCC4)nc32)CN(S(N)(=O)=O)C1 [Example 208] | 0.062
CC1(N2CCc3c(-c4cnc(N)nc4)nc(N4CCOCC4)nc32)CN(S(C)(=O)=O)C1 [Example 209] | 0.045
CC(=O)NCC(=O)N1CC(N2CCc3c(-c4cnc(N)nc4)nc(N4CCOCC4)nc32)C1 [Example 210] | 0.898
CC(=O)N1CC[C@@](C)(N2CCc3c(-c4cnc(N)nc4)nc(N4CCOCC4)nc32)C1 [Example 211] | 0.078
CC(C)C(=O)NCC(=O)N1CC(N2CCc3c(-c4cnc(N)nc4)nc(N4CCOC[C@@H]4C)nc32)C1 [Example 212] | 0.534
COC(=O)N1CC[C@](C)(N2CCc3c(-c4cnc(N)nc4)nc(N4CCOCC4)nc32)C1 [Example 213] | 0.030
COC(=O)N1CC[C@@](C)(N2CCc3c(-c4cnc(N)nc4)nc(N4CCOCC4)nc32)C1 [Example 214] | 0.128
C[C@@]1(N2CCc3c(-c4cnc(N)nc4)nc(N4CCOCC4)nc32)CCNC1 [Example 215] | 0.476
CNC(=O)N1CC[C@](C)(N2CCc3c(-c4cnc(N)nc4)nc(N4CCOCC4)nc32)C1 [Example 216] | 0.124
CN(CC(C)(C)N1CCc2c(-c3cnc(N)nc3)nc(N3CCOCC3)nc21)S(C)(=O)=O [Example 217] | 0.191
CC(C)C(=O)NCC(=O)N1CC(N2CCc3c(-c4cnc(N)nc4)nc(N4CCOCC4)nc32)C1 [Example 218] | 0.751
C[C@H]1COCCN1c1nc(-c2cnc(N)nc2)c2c(n1)N(C1(C)CN(S(N)(=O)=O)C1)CC2 [Example 219] | 0.037
CNS(=O)(=O)N1CC(C)(N2CCc3c(-c4cnc(N)nc4)nc(N4CCOC[C@@H]4C)nc32)C1 [Example 220] | 0.053
COCCC(=O)N1CC(N2CCc3c(-c4cnc(N)nc4)nc(N4CCOCC4)nc32)C1 [Example 221] | 1.291
C[C@H]1COCCN1c1nc(-c2cnc(N)nc2)c2c(n1)N(C1CN(S(=O)(=O)C3CNC3)C1)CC2 [Example 222] | 0.101
CC(=O)N1CC(S(=O)(=O)N2CC(N3CCc4c(-c5cnc(N)nc5)nc(N5CCOC[C@@H]5C)nc43)C2)C1 [Example 223] | 0.393
CC(C)S(=O)(=O)N1CC(N2CCc3c(-c4cnc(N)nc4)nc(N4CCOC[C@H]4C)nc32)C1 [Example 224] | 2.296
C[C@@H]1COCCN1c1nc(-c2cnc(N)nc2)c2c(n1)N([C@@]1(C)CCNC1)CC2 [Example 225] | 4.151
C[C@@H]1COCCN1c1nc(-c2cnc(N)nc2)c2c(n1)N([C@]1(C)CCNC1)CC2 [Example 226] | 7.437
C[C@@H]1COCCN1c1nc(-c2cnc(N)nc2)c2c(n1)N(C1(C)CCN(C(=O)OC(C)(C)C)C1)CC2 (stereo partly drawn) [Example 228] | 0.164
C[C@@H]1COCCN1c1nc(-c2cnc(N)nc2)c2c(n1)N([C@@]1(C)CCN(C(=O)OC(C)(C)C)C1)CC2 [Example 229] | 0.055
